Reference: ChEMBL document CHEMBL4261659, “Synthesis and biological evaluation of novel N-substituted nipecotic acid derivatives with a trans-alkene spacer as potent GABA uptake inhibitors” (Bioorg Med Chem, 2018)

Key:
GABA transporter 4 = target: T1, GABA transporter 4 (Mus musculus, UniProt P31650); experiment: Inhibition of mouse GAT4 expressed in HEK293 cells assessed as reduction in [3H]GABA uptake preincubated for 25 mins followed by [3H]GABA addition and measured after 4 mins by liquid scintillation counting method; assay type: cell-based
T1 sequence (P31650 whole entry): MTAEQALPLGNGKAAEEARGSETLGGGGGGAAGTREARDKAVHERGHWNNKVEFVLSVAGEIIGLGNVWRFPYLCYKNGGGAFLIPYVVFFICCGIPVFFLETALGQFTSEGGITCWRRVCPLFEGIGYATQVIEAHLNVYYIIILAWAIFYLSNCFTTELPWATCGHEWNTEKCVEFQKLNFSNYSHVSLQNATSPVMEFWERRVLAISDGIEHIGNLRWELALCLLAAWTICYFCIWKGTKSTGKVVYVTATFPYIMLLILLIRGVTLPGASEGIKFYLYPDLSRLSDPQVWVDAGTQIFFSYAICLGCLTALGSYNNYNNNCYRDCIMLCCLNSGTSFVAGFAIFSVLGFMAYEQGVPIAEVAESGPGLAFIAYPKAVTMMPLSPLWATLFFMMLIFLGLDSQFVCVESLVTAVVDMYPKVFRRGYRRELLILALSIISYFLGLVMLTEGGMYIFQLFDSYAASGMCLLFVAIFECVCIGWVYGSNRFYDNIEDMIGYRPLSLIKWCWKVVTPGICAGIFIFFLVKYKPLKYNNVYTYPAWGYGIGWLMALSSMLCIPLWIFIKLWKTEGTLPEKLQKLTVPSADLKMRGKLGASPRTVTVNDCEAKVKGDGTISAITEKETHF

[1] = target: T2, Sodium- and chloride-dependent GABA transporter 1 (Mus musculus, UniProt P31648); experiment: Displacement of NO711 from mouse GAT1 expressed in stable HEK293 cells preincubated for 10 mins followed by NO711 addition and measured after 40 mins by LC-ESI-MS/MS analysis; assay type: cell-based
[2] = target: T2, Sodium- and chloride-dependent GABA transporter 1; experiment: Inhibition of mouse GAT1 expressed in HEK293 cells assessed as reduction in [3H]GABA uptake preincubated for 25 mins followed by [3H]GABA addition and measured after 4 mins by liquid scintillation counting method; assay type: cell-based
[3] = test system: Betaine/GABA transporter BGT1 (Mus musculus); experiment: Inhibition of mouse GAT2 expressed in HEK293 cells assessed as remaining [3H]GABA uptake at 100 uM preincubated for 25 mins followed by [3H]GABA addition and measured after 4 mins by liquid scintillation counting method
[4] = test system: GABA transporter 3 (Mus musculus); experiment: Inhibition of mouse GAT3 expressed in HEK293 cells assessed as remaining [3H]GABA uptake at 100 uM preincubated for 25 mins followed by [3H]GABA addition and measured after 4 mins by liquid scintillation counting method
[5] = target: Sodium- and chloride-dependent GABA transporter 1 (Mus musculus) (UniProt P31648); experiment: Inhibition of mouse GAT1 expressed in HEK293 cells assessed as remaining [3H]GABA uptake at 100 uM preincubated for 25 mins followed by [3H]GABA addition and measured after 4 mins by liquid scintillation counting method; assay type: cell-based
[6] = target: T3, GABA transporter 4 (Mus musculus) (UniProt P31650); experiment: Inhibition of mouse GAT4 expressed in HEK293 cells assessed as remaining [3H]GABA uptake at 100 uM preincubated for 25 mins followed by [3H]GABA addition and measured after 4 mins by liquid scintillation counting method; assay type: cell-based
T3 sequence (whole entry): T1 sequence (P31650 whole entry)

[7] = target: Sodium- and chloride-dependent GABA transporter 1 (Mus musculus) (UniProt P31648); experiment: Displacement of NO711 from mouse GAT1 expressed in stable HEK293 cells assessed as remaining specific NO711 binding level preincubated at 100 uM for 10 mins followed by NO711 addition and measured after 40 mins by LC-ESI-MS/MS analysis; assay type: cell-based

| SMILES | IC50 (GABA transporter 4) [µM] | Ki [1] [µM] | IC50 [2] [µM] | Activity [3] [%] | Activity [4] [%] | Activity [5] [%] | Activity [6] [%] | Activity [7] [%] |
| --- | --- | --- | --- | --- | --- | --- | --- | --- |
| COc1ccc(C(/C=C/CN2CCC[C@H](C(=O)O)C2)(c2ccc(OC)cc2)c2ccc3sccc3c2)cc1 | 2.88 | 7.24 | 14.1 |  |  |  |  |  |
| COc1ccc(C(/C=C/CN2CCCC(C(=O)O)C2)(c2ccc(OC)cc2)c2nccs2)cc1 (racemic) |  | 33.9 |  | 78 | 82 | 65 | 49 |  |
| COc1ccc(C(C/C=C/CN2CCCC(C(=O)O)C2)(c2ccc(OC)cc2)c2ccc(OC)cc2)cc1 (racemic) | 41.7 | 34.7 | 55 | 66 |  |  |  |  |
| COc1ccc(C(O)(/C=C/CN2CCCC(C(=O)O)C2)c2ccc(OC)cc2)cc1 (racemic) | 44.7 |  | 70.8 | 69 | 66 |  |  | 54 |
| COc1ccc(C(/C=C/CN2CCCC(C(=O)O)C2)(c2ccc(OC)cc2)c2ccc3c(c2)OCO3)cc1 (racemic) | 3.16 | 8.71 | 28.2 | 53 |  |  |  |  |
| O=C(O)C1CCCN(C/C=C/C(c2ccccc2)(c2ccccc2)c2ccccc2)C1 (racemic) |  | 8.32 | 40.7 | 108 | 103 |  | 89 |  |
| COc1ccc(C(/C=C/CN2CCCC(C(=O)O)C2)(c2ccc(OC)cc2)c2ccsc2)cc1 (racemic) | 7.59 | 12.9 | 38.9 | 53 |  |  |  |  |
| O=C(O)C1CCCN(C/C=C/C(c2ccc3sccc3c2)(c2ccc3sccc3c2)c2ccc3sccc3c2)C1 (racemic) | 20 |  |  |  |  | 50 |  | 54 |
| COc1ccc(CC(/C=C/CN2CCCC(C(=O)O)C2)(c2ccc(OC)cc2)c2ccc(OC)cc2)cc1 (racemic) | 66.1 | 3.09 | 11.2 | 60 | 53 |  |  |  |
| O=C(O)C1CCCN(C/C=C/CC(c2ccccc2)(c2ccccc2)c2ccccc2)C1 (racemic) | 74.1 | 9.77 | 21.4 | 55 | 56 |  |  |  |
| O=C(O)C1CCCN(C/C=C/C(c2ccc3occc3c2)(c2ccc3occc3c2)c2ccc3occc3c2)C1 (racemic) | 5.89 | 2.14 | 4.07 |  |  |  |  |  |
| Cc1ccc(C(/C=C/CN2CCCC(C(=O)O)C2)(c2ccc(C)cc2)c2ccc(C)cc2)cc1 (racemic) | 10.7 | 5.5 | 20.4 |  |  |  |  |  |
| COc1ccc(C(/C=C/CN2CCCC(C(=O)O)C2)(c2ccc(OC)cc2)c2ccc3sccc3c2)cc1 (racemic) | 3.55 | 3.31 | 10.2 |  |  |  |  |  |
| O=C(O)C1CCCN(C/C=C/C(c2ccc3c(c2)OCO3)(c2ccc3c(c2)OCO3)c2ccc3c(c2)OCO3)C1 (racemic) | 15.1 | 6.31 | 17.8 |  |  |  |  |  |
| COc1ccc(C(/C=C/CN2CCCC(C(=O)O)C2)(Cc2ccccc2)c2ccc(OC)cc2)cc1 (racemic) |  | 4.68 | 15.8 | 92 | 66 |  | 69 |  |
| O=C(O)C1CCCN(C/C=C/CC(c2ccccc2)c2ccccc2)C1 (racemic) |  | 0.0309 | 0.166 | 96 | 69 |  | 82 |  |
| COc1ccc(C(/C=C/CN2CCCC(C(=O)O)C2)c2ccc(OC)cc2)cc1 (racemic) | 31.6 | 3.72 | 14.1 | 51 |  |  |  |  |
| COc1ccc(C(C/C=C/CN2CCCC(C(=O)O)C2)c2ccc(OC)cc2)cc1 (racemic) |  | 3.24 | 13.5 | 96 | 71 |  | 84 |  |
| COc1ccc(C(/C=C/CN2CCCC(C(=O)O)C2)(c2ccc(OC)cc2)c2nccn2C)cc1 (racemic) |  |  |  | 72 | 83 | 70 | 83 | 62 |
